Values after ≈ are worked out from the molar mass of the structure shown. Where two headings read alike, the source gives them in different places.
What was measured:
[1] = tested on: E. coli KA797 cells carrying pUK21 vector without the β-lactamase gene; experiment: microbe, parasite or virus in culture; format: cell-based; conditions: Escherichia coli; antibiotic alone; pUK21 without β-lactamase gene; read-out: MIC
[2] = tested on: E. coli KA797 cells carrying pUK21 with BlaC WT (Tat); experiment: microbe, parasite or virus in culture; format: cell-based; conditions: Escherichia coli, antibiotic alone
[3] = tested on: E. coli KA797 cells carrying pUK21 with KPC-2 (Tat); experiment: microbe, parasite or virus in culture; format: cell-based; conditions: Escherichia coli, antibiotic alone
[4] = tested on: E. coli KA797 cells carrying pUK21 with NmcA (pelB/Sec); experiment: microbe, parasite or virus in culture; format: cell-based; conditions: Escherichia coli, antibiotic alone
[5] = tested on: E. coli KA797 cells carrying pUK21 with TEM-1 WT (Sec); experiment: microbe, parasite or virus in culture; format: cell-based; conditions: Escherichia coli, antibiotic alone
[6] = tested on: E. coli KA797 cells carrying pUK21 with CTX-M-14 Y105R; format: cell-based, Escherichia coli; conditions: antibiotic alone
BlaC WT = biological target: T1, BlaC WT (Mycobacterium tuberculosis, UniProt P9WKD3); format: biochemical; conditions: pH 6.4
T1 construct: correspond to residue numbers 41-307 of BlaC (Uniprot entry P9WKD3-1); His tag with TEV cleavage site (N); made in house; host or cells: E. coli BL21 (DE3) pLysS

CTX-M-14 Y105G = biological target: T2, CTX-M-14 Y105G (Escherichia coli, UniProt Q9L5C7, Y108G); format: biochemical
T2 construct: 29 to 291 of CTX-M-14 (Q9L5C7); His tag with TEV cleavage site (N); made in house; host or cells: E. coli BL21 (DE3) pLysS

TEM-1 Y105G = TEM-1 Y105G (Escherichia coli, UniProt P62593, Y103G); experiment: Steady-state kinetics of substrate hydrolysis, TEM-1 Y105G; format: biochemical; conditions: phosphate buffer pH 6.4, 25 °C
[7] = tested on: E. coli KA797 cells carrying KPC-2 position 105 library; format: cell-based; conditions: selection with labelled antibiotic
[8] = tested on: E. coli KA797 cells carrying TEM-1 position 105 library; format: cell-based; conditions: for Fi carbenicillin AVG: average of replicates

With CC1(C)S[C@@H]2[C@H](NC(=O)C(C(=O)O)c3ccccc3)C(=O)N2[C@H]1C(=O)O (some centres unmarked) [carbenicillin] the MIC [1] was 10 mg/L (≈ 26.4 µM), the MIC [2] was 800 mg/L (≈ 2110 µM) and the MIC [3] was 400 mg/L (≈ 1060 µM). The MIC [4] was 200 mg/L (≈ 529 µM), the MIC [5] was 32000 mg/L (≈ 84600 µM) and the MIC [6] was 2000 mg/L (≈ 5290 µM). It also gave a kcat (BlaC WT) of 0.51 ± 00.2 s⁻¹, a Km (BlaC WT; read-out: KM^app) of 5.5 ± 0.7 µM and a kcat (CTX-M-14 Y105G; phosphate buffer pH 6.4, 25 °C) of 11 ± 2 s⁻¹. For the same molecule, the Km (CTX-M-14 Y105G; read-out: KM^app, phosphate buffer pH 6.4, 25 °C) was 228 ± 61 µM, the kcat (TEM-1 Y105G) was 59.0 ± 0.3 s⁻¹ and the “Fi AVG (average fitness of replicates)” value ([7]; KPC-2 AA 105 = Ala) was -1.895. The “Fi AVG (average fitness of replicates)” value ([7]; KPC-2 AA 105 = Arg) was -0.930, the “Significance of average fitness” value ([7]; KPC-2 AA 105 = Arg) was “-” and the “Fi AVG (average fitness of replicates)” value ([7]; KPC-2 AA 105 = Asn) was -1.475. For the same molecule, the “Fi AVG (average fitness of replicates)” value ([7]; KPC-2 AA 105 = Asp) was -1.100, the “Significance of average fitness” value ([7]; KPC-2 AA 105 = Asp) was “-” and the “Fi AVG (average fitness of replicates)” value ([7]; KPC-2 AA 105 = Cys) was -1.311. The “Significance of average fitness” value ([7]; KPC-2 AA 105 = Cys) was “-”, the “Fi AVG (average fitness of replicates)” value ([7]; KPC-2 AA 105 = Gln) was -2.037 and the “Significance of average fitness” value ([7]; KPC-2 AA 105 = Gln) was “-”. The “Fi AVG (average fitness of replicates)” value ([7]; KPC-2 AA 105 = Glu) was -1.844, the “Fi AVG (average fitness of replicates)” value ([7]; KPC-2 AA 105 = Gly) was -1.656 and the “Significance of average fitness” value ([7]; KPC-2 AA 105 = Gly) was “-”. For the same molecule, the “Fi AVG (average fitness of replicates)” value ([7]; KPC-2 AA 105 = His) was 0.833, the “Significance of average fitness” value ([7]; KPC-2 AA 105 = His) was “+” and the “Fi AVG (average fitness of replicates)” value ([7]; KPC-2 AA 105 = Ile) was -0.975. For the same molecule, the “Fi AVG (average fitness of replicates)” value ([7]; KPC-2 AA 105 = Leu) was -1.769, the “Significance of average fitness” value ([7]; KPC-2 AA 105 = Leu) was “-” and the “Fi AVG (average fitness of replicates)” value ([7]; KPC-2 AA 105 = Met) was -2.969. The “Fi AVG (average fitness of replicates)” value ([7]; KPC-2 AA 105 = Phe) was -1.337, the “Significance of average fitness” value ([7]; KPC-2 AA 105 = Phe) was “-” and the “Fi AVG (average fitness of replicates)” value ([7]; KPC-2 AA 105 = Ser) was -2.334. For the same molecule, the “Significance of average fitness” value ([7]; KPC-2 AA 105 = Ser) was “-”, the “Fi AVG (average fitness of replicates)” value ([7]; KPC-2 AA 105 = Thr) was -0.740 and the “Significance of average fitness” value ([7]; KPC-2 AA 105 = Thr) was “-”. The “Fi AVG (average fitness of replicates)” value ([7]; KPC-2 AA 105 = Trp (WT, reference)) was 0.000, the “Fi AVG (average fitness of replicates)” value ([7]; KPC-2 AA 105 = Tyr) was -1.021 and the “Significance of average fitness” value ([7]; KPC-2 AA 105 = Tyr) was “-”. For the same molecule, the “Fi AVG (average fitness of replicates)” value ([7]; KPC-2 AA 105 = Val) was -2.800, the “Significance of average fitness” value ([7]; KPC-2 AA 105 = Val) was “-” and the “WT abs Fi 1 (absolute fitness)” value ([7]; KPC-2 WT (Trp 105), replicate 1) was 0.136. The “WT abs Fi 2 (absolute fitness)” value ([7]; KPC-2 WT (Trp 105), replicate 2) was -0.163, the “WT abs Fi 3 (absolute fitness)” value ([7]; KPC-2 WT (Trp 105), replicate 3) was 0.473 and the “Significance (Average fitnes carbenicillin)” value ([8]; AA 105 Ala) was “-”. For the same molecule, the “Fi carbenicillin AVG” value ([8]; AA 105 Ala) was -0.528, the “Fi CAR 1” value ([8]; AA 105 Ala, replicate 1) was -0.503 and the “Fi CAR 2” value ([8]; AA 105 Ala, replicate 2) was -0.553. The “Significance (Average fitnes carbenicillin)” value ([8]; AA 105 Arg) was “-”, the “Fi carbenicillin AVG” value ([8]; AA 105 Arg) was -0.371 and the “Fi CAR 1” value ([8]; AA 105 Arg, replicate 1) was -0.360. For the same molecule, the “Fi CAR 2” value ([8]; AA 105 Arg, replicate 2) was -0.382, the “Fi carbenicillin AVG” value ([8]; AA 105 Asn) was -0.119 and the “Fi CAR 1” value ([8]; AA 105 Asn, replicate 1) was -0.088. The “Fi CAR 2” value ([8]; AA 105 Asn, replicate 2) was -0.150, the “Significance (Average fitnes carbenicillin)” value ([8]; AA 105 Asp) was “-” and the “Fi carbenicillin AVG” value ([8]; AA 105 Asp) was -1.040. The “Fi CAR 1” value ([8]; AA 105 Asp, replicate 1) was -1.009, the “Fi CAR 2” value ([8]; AA 105 Asp, replicate 2) was -1.070 and the “Significance (Average fitnes carbenicillin)” value ([8]; AA 105 Cys) was “-”. For the same molecule, the “Fi carbenicillin AVG” value ([8]; AA 105 Cys) was -0.639, the “Fi CAR 1” value ([8]; AA 105 Cys, replicate 1) was -0.611 and the “Fi CAR 2” value ([8]; AA 105 Cys, replicate 2) was -0.666. For the same molecule, the “Significance (Average fitnes carbenicillin)” value ([8]; AA 105 Gln) was “-”, the “Fi carbenicillin AVG” value ([8]; AA 105 Gln) was -0.400 and the “Fi CAR 1” value ([8]; AA 105 Gln, replicate 1) was -0.384. For the same molecule, the “Fi CAR 2” value ([8]; AA 105 Gln, replicate 2) was -0.417, the “Significance (Average fitnes carbenicillin)” value ([8]; AA 105 Glu) was “-” and the “Fi carbenicillin AVG” value ([8]; AA 105 Glu) was -0.893. For the same molecule, the “Fi CAR 1” value ([8]; AA 105 Glu, replicate 1) was -0.890, the “Fi CAR 2” value ([8]; AA 105 Glu, replicate 2) was -0.895 and the “Fi carbenicillin AVG” value ([8]; AA 105 Gly) was -0.181. The “Fi CAR 1” value ([8]; AA 105 Gly, replicate 1) was -0.158, the “Fi CAR 2” value ([8]; AA 105 Gly, replicate 2) was -0.204 and the “Fi carbenicillin AVG” value ([8]; AA 105 His) was -0.182. The “Fi CAR 1” value ([8]; AA 105 His, replicate 1) was -0.177, the “Fi CAR 2” value ([8]; AA 105 His, replicate 2) was -0.187 and the “Significance (Average fitnes carbenicillin)” value ([8]; AA 105 Ile) was “-”. For the same molecule, the “Fi carbenicillin AVG” value ([8]; AA 105 Ile) was -0.707, the “Fi CAR 1” value ([8]; AA 105 Ile, replicate 1) was -0.683 and the “Fi CAR 2” value ([8]; AA 105 Ile, replicate 2) was -0.731. The “Significance (Average fitnes carbenicillin)” value ([8]; AA 105 Leu) was “-”, the “Fi carbenicillin AVG” value ([8]; AA 105 Leu) was -0.631 and the “Fi CAR 1” value ([8]; AA 105 Leu, replicate 1) was -0.615. For the same molecule, the “Fi CAR 2” value ([8]; AA 105 Leu, replicate 2) was -0.647, the “Significance (Average fitnes carbenicillin)” value ([8]; AA 105 Lys) was “-” and the “Fi carbenicillin AVG” value ([8]; AA 105 Lys) was -0.496. The “Fi CAR 1” value ([8]; AA 105 Lys, replicate 1) was -0.486, the “Fi CAR 2” value ([8]; AA 105 Lys, replicate 2) was -0.506 and the “Significance (Average fitnes carbenicillin)” value ([8]; AA 105 Met) was “-”. For the same molecule, the “Fi carbenicillin AVG” value ([8]; AA 105 Met) was -0.369, the “Fi CAR 1” value ([8]; AA 105 Met, replicate 1) was -0.357 and the “Fi CAR 2” value ([8]; AA 105 Met, replicate 2) was -0.382. For the same molecule, the “Fi carbenicillin AVG” value ([8]; AA 105 Phe) was -0.152, the “Fi CAR 1” value ([8]; AA 105 Phe, replicate 1) was -0.133 and the “Fi CAR 2” value ([8]; AA 105 Phe, replicate 2) was -0.171. The “Significance (Average fitnes carbenicillin)” value ([8]; AA 105 Pro) was “-”, the “Fi carbenicillin AVG” value ([8]; AA 105 Pro) was -0.936 and the “Fi CAR 1” value ([8]; AA 105 Pro, replicate 1) was -0.929. For the same molecule, the “Fi CAR 2” value ([8]; AA 105 Pro, replicate 2) was -0.943, the “Significance (Average fitnes carbenicillin)” value ([8]; AA 105 Ser) was “-” and the “Fi carbenicillin AVG” value ([8]; AA 105 Ser) was -0.354. For the same molecule, the “Fi CAR 1” value ([8]; AA 105 Ser, replicate 1) was -0.356, the “Fi CAR 2” value ([8]; AA 105 Ser, replicate 2) was -0.352 and the “Significance (Average fitnes carbenicillin)” value ([8]; AA 105 Thr) was “-”. The “Fi carbenicillin AVG” value ([8]; AA 105 Thr) was -0.562, the “Fi CAR 1” value ([8]; AA 105 Thr, replicate 1) was -0.532 and the “Fi carbenicillin AVG” value ([8]; AA 105 Trp) was -0.027. For the same molecule, the “Fi CAR 1” value ([8]; AA 105 Trp, replicate 1) was -0.012, the “Fi CAR 2” value ([8]; AA 105 Trp, replicate 2) was -0.043 and the “Fi carbenicillin AVG” value ([8]; AA 105 Tyr) was 0.000. For the same molecule, the “Fi CAR 1” value ([8]; AA 105 Tyr, replicate 1) was 0.000, the “Fi CAR 2” value ([8]; AA 105 Tyr, replicate 2) was 0.000 and the “Significance (Average fitnes carbenicillin)” value ([8]; AA 105 Val) was “-”. For the same molecule, the “Fi carbenicillin AVG” value ([8]; AA 105 Val) was -0.544, the “Fi CAR 1” value ([8]; AA 105 Val, replicate 1) was -0.508 and the “Fi CAR 2” value ([8]; AA 105 Val, replicate 2) was -0.579. The “WT abs Fi 1” value ([8]; absolute fitness of TEM-1 WT, carbenicillin, replicate 1) was 0.724 and the “WT abs Fi 2” value ([8]; absolute fitness of TEM-1 WT, carbenicillin, replicate 2) was 0.359.

— paper PMC12274840 (The Journal of Biological Chemistry, 2025)
